{
  "source": "patent US8455692B2",
  "about": "“Process for resolution of 1-(3-hydroxyphenyl)-2-methylamino ethanol” (Divi's Laboratories, Ltd., priority 2010, dated 2013)",
  "test": "Solubility of phenylephrine base in water and methanol (Table 2)",
  "format": "physicochemical",
  "description": "One skilled in the art can improvise modifications to the above procedure in several aspects. For example it is possible to use the racemic phenylephrine hydrochloride salt, suspend it in methanol and add the requisite amount of alkali to liberate the free base before adding the R-naproxen to it. Phenylephrine base is not soluble in water but may be rendered soluble at a temperature above 80° and higher dilution but at lower dilution in hot methanol. Suitable combination of solvent, dilution and temperature may be chosen depending on the size of input. (See Table 2 below). R-naproxen may be added as a solution in methanol or as a solid to keep a low solvent ratio enabling better recovery of the salt.",
  "data": [
    {"smiles": "CNCC(O)c1cccc(O)c1", "note": "(racemic) [Phenylephrine base, 1-(3-hydroxyphenyl)-2-methylamino ethanol]", "values": [
      {"measurement": "Solubility", "setting": "Methanol, 25-30° C., 1 g in 10 mL", "value": "Not soluble"},
      {"measurement": "Solubility", "setting": "Methanol, 25-30° C., 1 g in 30 mL", "value": "Not soluble"},
      {"measurement": "Solubility", "setting": "Methanol, 25-30° C., 1 g in 100 mL", "value": "Soluble"},
      {"measurement": "Solubility", "setting": "Methanol, 60-80° C., 1 g in 10 mL", "value": "Not soluble"},
      {"measurement": "Solubility", "setting": "Methanol, 60-80° C., 1 g in 30 mL", "value": "Soluble"},
      {"measurement": "Solubility", "setting": "Methanol, 60-80° C., 1 g in 100 mL", "value": "Soluble"},
      {"measurement": "Solubility", "setting": "Water, 25-30° C., 1 g in 10 mL", "value": "Not soluble"},
      {"measurement": "Solubility", "setting": "Water, 25-30° C., 1 g in 30 mL", "value": "Not soluble"},
      {"measurement": "Solubility", "setting": "Water, 25-30° C., 1 g in 100 mL", "value": "Not soluble"},
      {"measurement": "Solubility", "setting": "Water, 60-80° C., 1 g in 10 mL", "value": "Not soluble"},
      {"measurement": "Solubility", "setting": "Water, 60-80° C., 1 g in 30 mL", "value": "Not soluble"},
      {"measurement": "Solubility", "setting": "Water, 60-80° C., 1 g in 100 mL", "value": "Soluble"},
      {"measurement": "Solubility", "setting": "Water, 100° C., 1 g in 10 mL", "value": "Not soluble"},
      {"measurement": "Solubility", "setting": "Water, 100° C., 1 g in 30 mL", "value": "Soluble"},
      {"measurement": "Solubility", "setting": "Water, 100° C., 1 g in 100 mL", "value": "Soluble"},
      {"measurement": "Solubility in water", "setting": "water", "value": "not soluble"}
    ]}
  ]
}
